One molecule from US20040109897A1, “Free flowing solid antimicrobial composition” (priority 2002, published 2004) can be followed below.

A short description of data set [1]: Free flow preservation (caking) of OPA formulations on exposure to temperature and humidity. The data set is classed as physicochemical. The settings on record: for Caking tendency: 0 wt. % of anti-caking agent; for Time to caking: untreated. The source says:
Samples of OPA containing 0.01-0.1% water were ground and mixed with various additives at levels of 0.2% to 5%. The samples were mixed on high-speed rollers for one hour followed by exposure to various temperatures and levels of humidity. The samples were examined at various time intervals for flow properties. Complete caking was defined as all sample stuck together in one solid block. For ease of interpretation and comparison, the following notation was used: 1) Formulations that caked in under two weeks were assigned one star (*); 2). Formulations that caked in two to four weeks were assigned two stars; 3) Formulations that caked in four to eight weeks were assigned three stars; 4) Formulations stable (flowable) over eight weeks were assigned four stars.

A short description of data set [2]: Flowability of OPA after one hour on high-speed rollers. The format is physicochemical. The settings on record: granular OPA in capped 100 ml jar, no additive. The procedure:
Ortho-phthalic aldehyde (13.04 g, granular) was placed in a 100 ml jar. The jar was tightly capped and placed on high-speed rollers for one hour. […] The lid was removed and the sample was placed in a humidity oven set at 40° C. and 90% RH (relative humidity). After 4 hours of exposure the sample had no flow.
Ortho-phthalic aldehyde (10.04 g, granular) was placed in a 100 ml jar. The jar was tightly capped and placed on high-speed rollers for one hour. […] The lid was removed and the sample was placed in a humidity oven set at 30° C. and 90% RH (relative humidity).
Ortho-phthalic addehyde (12.04 g, granular) was placed in a 100 ml jar. The jar was tightly capped and placed on high-speed rollers for one hour. […] The lid was removed and the sample was placed in a humidity oven set at 40° C. and 70% RH (relative humidity).

In the case of `O=Cc1ccccc1C=O` [Control, ortho-phthalic aldehyde], the Caking tendency entry is reported as “* (Formulations that caked in under two weeks were assigned one star (*))” in data set [1] (22.5° C. and 65% RH); “* (Formulations that caked in under two weeks were assigned one star (*))” in data set [1] (30° C. and 90% RH); “* (Formulations that caked in under two weeks were assigned one star (*))” in data set [1] (40° C. and 70% RH); “* (Formulations that caked in under two weeks were assigned one star (*))” in data set [1] (40° C. and 90% RH). Also, the Time to caking result is “one day” in data set [1] (30° C. and 90% RH); “half a day” in data set [1] (40° C. and 90% RH). Besides, the Flow after exposure result was “no free flow” in data set [1] (4 hours at 40° C. and 70% RH); “no flow” in data set [1] (4 hours at 40° C. and 90% RH); “no free flow” in data set [1] (24 hours at 30° C. and 90% RH). The “Flowability after one hour on high-speed rollers” value in data set [2] is “very poor flowability”.
